In PubChem BioAssay AID1996:
In brackets after ≈: the same amount, converted by molar mass.

Details: buffer; pH 7.4; 200.0 µM

Row | SMILES | solubility kinetic [µg/mL]
1 | CCN1CCN(C(=O)c2c(-c3ccccc3)noc2C)CC1 | 40 (≈ 134 µM)
2 | CCOC(=O)C1CCCN1C(=O)c1ccc(OC)c(Br)c1 (centres undefined) | > 53.4
3 | COc1ccc(CCNCc2ccccc2)cc1.O=C(O)C(=O)O | > 49.7
4 | COc1ccc(Nc2ncnc3c2c(C)c(C)n3CCO)cc1 | > 46.9
5 | CCOc1ccc(N2C(=O)C(Cl)=C(N3CCOCC3)C2=O)cc1 | > 50.5
6 | O=C(CN1CCCCCC1)Nc1ccc(S(=O)(=O)N2CCCCC2)cc1 | 50.4 (≈ 133 µM)
7 | Cc1ccc(N=C2C(=O)Nc3ccc(Br)cc32)cc1 | 1.1 (≈ 3.49 µM)
8 | CC1CC(C)CN(C(=O)COC(=O)c2ccc3ncsc3c2)C1 (centres undefined) | 44.9 (≈ 135 µM)
9 | Cc1nc2ccsc2c(=O)n1-c1cccc(Cl)c1 | > 41.5
10 | Cc1ccc(S(=O)(=O)NCC(=O)OCC(=O)N2CC(C)OC(C)C2)cc1 (centres undefined) | > 57.7
11 | O=C1SC(Cc2ccccc2)C(=O)N1c1ccccc1 (centres undefined) | 6.1 (≈ 21.5 µM)
12 | O=C(c1ccc(-n2cccn2)cc1)N1CCc2ccccc2C1 | > 45.5
13 | Cc1ccc2oc(=O)n(CCOc3ccccc3C)c2c1 | < 0.6
14 | Cc1cc(C)cc(C(=O)N2CCN(c3ccccn3)CC2)c1 | 42.7 (≈ 145 µM)
15 | COc1ccc(C(=O)NCC2(c3ccccc3)CCOCC2)cc1 | 47.1 (≈ 145 µM)
16 | Cc1ccc(CN2CCN(C3CCOCC3)CC2CCO)cc1 (centres undefined) | > 47.8
17 | COc1ccc(/C=N/OCC(=O)N2CCCC2)c(OC)c1 | > 43.9
18 | O=C(Nc1cccc(F)c1)C1CCCN(c2cnccn2)C1 (centres undefined) | > 45.1
19 | CSc1ccccc1NC(=O)C1CCCN(S(C)(=O)=O)C1 (centres undefined) | > 49.3
20 | CCC(C)(CCNC(=O)Cc1ccccc1)c1ccccc1OC (centres undefined) | 15 (≈ 46.1 µM)
21 | Clc1ccc(-c2cn3cc(Cl)ccc3n2)cc1 | < 0.3
22 | COc1cccc(C(=O)N(Cc2cccs2)C2CCS(=O)(=O)C2)c1 (centres undefined) | > 54.8
23 | O=C(NCC1CC1)c1ccccc1Cl | > 31.5
24 | COc1ccc(Cl)cc1NC(=S)N1CC(C)OC(C)C1 (centres undefined) | > 47.2

Row | SMILES | solubility kinetic [µg/mL]
25 | Oc1c(Cl)cc(Cl)cc1CNc1nc2ccccc2[nH]1 | 3.5 (≈ 11.4 µM)
26 | O=C(Cc1ccc(Cl)cc1Cl)NC1CCCCCC1 | 2.2 (≈ 7.33 µM)
27 | O=c1[nH]c([O-])c(Cc2ccc3c(c2)OCO3)c(=O)[nH]1.[NH4+] | 29.7
28 | Cc1cccc(OCCn2ccnc2)c1 | 20.9 (≈ 103 µM)
29 | C=CCn1c(O)c(/C=C2\C=Nc3ccccc32)c(=O)[nH]c1=O | 4 (≈ 13.5 µM)
30 | CCOc1ccc(NS(=O)(=O)c2ccc3[nH]c(=O)[nH]c3c2)cc1 | 2 (≈ 6 µM)
31 | Cc1ccc(Cn2c(N3CCN(C)CC3)nc3c2c(=O)[nH]c(=O)n3C)cc1 | > 55.3
32 | Cl.Clc1ccc(Cn2c(CN3CCCC3)nc3ccccc32)cc1 | 49.5
33 | CCc1ccc(NC(=O)COC(=O)/C=C/c2ccco2)cc1 | 4.8 (≈ 16 µM)
34 | O=C(Nc1ccc(F)cc1)C(NC1CCCCC1)c1ccccc1 (centres undefined) | 40.6 (≈ 124 µM)
35 | Cc1ccc(O)c(NC(=O)Cc2ccc3ccccc3c2)c1 | 6.5 (≈ 22.3 µM)
36 | COc1ccc(Oc2cccc(Cl)c2CNC(=O)CSCC(=O)O)cc1 | > 59.4
37 | COC(=O)c1ccc(CN2C(=O)c3ccccc3C2=O)o1 | > 42.8
38 | CN(C(=O)CSc1nc2c(c(=O)[nH]1)CCC2)c1ccccc1 | > 47.3
39 | Cc1ccc(CN2CCN(CC(=O)NCc3ccccc3)CC2)cc1 | 2.2 (≈ 6.52 µM)
40 | CCOc1ccc(-c2nonc2NC(=O)c2ccco2)cc1 | 12.1 (≈ 40.4 µM)
41 | O=C(COC(=O)c1c(F)cccc1F)c1ccc[nH]1 | 39.3 (≈ 148 µM)
42 | CCC(=O)Nc1cccc(NC(=O)c2ccc(C)cc2Cl)c1 | 0.6 (≈ 1.89 µM)
43 | CCC1C(=NO)C(CC)C(c2ccccc2)NC1c1ccccc1 (centres undefined) | 0.9 (≈ 2.79 µM)
44 | O=C(NCCCN1CCCC1=O)c1ccc(NS(=O)(=O)c2ccccc2)cc1 | 58.8 (≈ 146 µM)
45 | COc1ccc(Cl)cc1NC(=O)COC(C)=O | > 38.7
46 | Cc1cccc(C(=O)NCCCNC(=O)c2ccc(C)nc2)c1 | 44.1 (≈ 142 µM)
47 | OC1/C(=C/c2ccc(C(F)(F)F)cc2)N2CCC1CC2 (centres undefined) | 41.5 (≈ 146 µM)
48 | Cc1onc(-c2c(Cl)cccc2Cl)c1NC(=O)N1CCSCC1 | > 55.8

Row | SMILES | solubility kinetic [µg/mL]
49 | CCN(CC(=O)Nc1ccccc1OC)Cc1csc(CC(=O)Nc2ccc(C)cc2)n1 | 19 (≈ 42 µM)
50 | COC(=O)C1=C(C)NC(C)=C(C(=O)OC)C1c1ccc(C)o1 | 13 (≈ 42.6 µM)
51 | O=c1cc(C(F)(F)F)nc(SCc2cccc3ccccc23)[nH]1 | 7.5 (≈ 22.3 µM)
52 | CCc1cccc(NC(=O)CC2Oc3ccccc3NC2=O)c1 (centres undefined) | 2.4 (≈ 7.73 µM)
53 | CC1(CO)COC2(OC1)C(=O)Nc1ccccc12 (centres undefined) | > 37.4
54 | CCN(CC(=O)NCc1cccs1)C(=O)c1cc(=O)[nH]c2ccccc12 | > 55.4
55 | O=[N+]([O-])c1ccc(Nc2ccccc2O)c2nonc12 | > 40.8
56 | O=C(Cc1ccc([N+](=O)[O-])cc1)c1c(O)cc(O)cc1O | > 43.4
57 | Cc1nc(NC(=O)CCc2ccccc2)sc1C | 18.7 (≈ 71.8 µM)
58 | O=C(NN=C1CCCCCC1)c1ccncc1 | > 34.7
59 | CN(C)c1ccc(C(=O)/C=C/c2cccnc2)cc1 | 6.7 (≈ 26.6 µM)
60 | COCCCn1c(-c2cccs2)nc2nc3ccccc3nc21 | 12.9 (≈ 39.8 µM)
61 | CCc1nc(SCC(=O)Nc2cccc3ccccc23)[nH]c(=O)c1C | 1.8 (≈ 5.09 µM)
62 | Cc1ccc(C23CC4CC(CC(C(=O)NCC(=O)O)(C4)C2)C3)cc1 | > 49.1
63 | CCCC[N+]12CCC(CC1)C(Cc1ccccc1)C2.[Br-] (centres undefined) | > 50.7
64 | CCC(Oc1ccccc1OC)C(=O)Nc1ccc2c(c1)OCO2 (centres undefined) | 26.3 (≈ 79.9 µM)
65 | CC(=O)N1CCN(S(=O)(=O)c2ccc(C)cc2)C1C (centres undefined) | > 42.4
66 | Cc1ccc(C(=O)N2c3ccccc3CC2C)o1 (centres undefined) | 31.6 (≈ 131 µM)
67 | CCOC(=O)N1CCC(NS(=O)(=O)c2ccc(C)c(Cl)c2)CC1 | > 54.1
68 | COc1ccc([N+](=O)[O-])cc1NC(=O)c1csc(C)c1 | < 0.3
69 | CCN(Cc1ccccc1)C(=O)c1oc2ccc(C)cc2c1C | 3 (≈ 9.76 µM)
70 | COc1ccc(Nc2nc3ccccc3n2C)cc1 | 36.5 (≈ 144 µM)
71 | COc1ccc(NC(=O)CS(=O)c2cccc(Cl)c2)cc1 (centres undefined) | > 48.6
72 | O=C(CN1CCN(C(=O)c2ccccc2)CC1)Nc1ccccc1 | > 48.5

Row | SMILES | solubility kinetic [µg/mL]
73 | CC(=O)C1=C(O)C(=O)N(c2ccc(O)cc2)C1c1ccccc1 (centres undefined) | > 46.4
74 | O=C1NC(=S)N/C1=C/c1ccc2ccccc2c1 | 0.6 (≈ 2.36 µM)
75 | COc1ccc(S(=O)(=O)NCCNC(=O)N2CCOCC2)cc1 | > 51.5
76 | Cc1ccccc1NC(=O)CSC(=O)c1ccccc1 | 12.5 (≈ 43.8 µM)
77 | O=[N+]([O-])c1ccc(S(=O)(=O)c2ccccc2)nc1 | > 39.6
78 | CN(C)c1nc(N(C)C)nc(N(C#N)CCCl)n1 | 19.2 (≈ 71.2 µM)
79 | CC(=O)Nc1nc(C)c(Oc2ccc(C)cc2)c(=O)[nH]1 | 39.6 (≈ 145 µM)
80 | O=c1c2ccccc2nc(-c2ccccc2Cl)n1-c1cccc(O)c1 | > 52.3
81 | CC(C)CCNC(=O)c1ccc2c(Cl)c3c(nc2c1)CCC3 | 0.5 (≈ 1.58 µM)
82 | CCc1ccc(C(=O)Nc2cc(C)ccc2F)s1 | 16.6 (≈ 63 µM)
83 | CC(OC(=O)/C(C#N)=C/c1ccco1)C(=O)N(C)c1ccccc1 (centres undefined) | 47.8 (≈ 147 µM)
84 | O=[N+]([O-])c1ccc(NCc2ccc(Cl)cc2)nc1 | 1.2 (≈ 4.55 µM)
85 | COCCn1c(=S)[nH]c2ccccc21 | > 31.2
86 | Cc1ccnc(SC2CC(=O)N(c3ccc(Br)cc3)C2=O)n1 (centres undefined) | 44.1 (≈ 117 µM)
87 | O=C(COc1ccc(C(=O)c2ccccc2)cc1)Nc1cccnc1 | > 49.9
88 | CC(C(=O)C12CC3CC(CC(C3)C1)C2)N1CCOCC1.Cl (centres undefined) | > 47.1
89 | CN(Cc1cnccn1)Cc1nc(Cc2ccccc2F)no1 | > 47
90 | COC(=O)c1ccc(NCC(=O)Nc2cc(C)cc(C)c2)cc1 | 5.4 (≈ 17.3 µM)
91 | CCC(C)Nc1nc2c(c(=O)[nH]c(=O)n2C)n1CCCc1ccccc1 (centres undefined) | 36.9 (≈ 104 µM)
92 | Cc1cccc(C)c1NC(=O)c1c(O)c2ccccc2[nH]c1=O | 0.5 (≈ 1.62 µM)
93 | O=C(CNC(=O)[C@@H]1Cc2ccccc2CN1)NC1CCCC1 | > 45.2
94 | Cc1ccc(CNS(=O)(=O)c2ccccc2[N+](=O)[O-])cc1 | 38.7 (≈ 126 µM)
95 | O=C(COC(=O)Cn1ccc(=O)[nH]c1=O)Nc1ccc(F)cc1 | > 48.2
96 | Cc1cc2cc(CNC(=O)C(C)Oc3ccccc3)ccc2n1C (centres undefined) | 11.4 (≈ 35.4 µM)

Row | SMILES | solubility kinetic [µg/mL]
97 | CCOC(=O)C1CCCN(C(=O)CSc2nc(C)cc(C)n2)C1 (centres undefined) | 41.5 (≈ 123 µM)
98 | COc1ccccc1NC(=O)NC1CCS(=O)(=O)C1 (centres undefined) | > 42.6
99 | CCCNC(=S)N1CCCC(c2nc3ccccc3[nH]2)C1 (centres undefined) | 13.4 (≈ 44.3 µM)
100 | COc1ccccc1CC(=O)NCCN1CCCCC1 | 39.3 (≈ 142 µM)
101 | Cc1ccc(S(=O)(=O)NCC(=O)OCCOc2ccc(Br)cc2)cc1 | 3.8 (≈ 8.87 µM)
102 | CN(CC(=O)NC1CC1)S(=O)(=O)c1ccc(F)cc1 | > 42.9
103 | N#Cc1ccc(OCC(=O)NCC2COc3ccccc3O2)cc1 (centres undefined) | > 48.7
104 | CSc1ncccc1C(=O)Nc1ccc2c(c1)OCCO2 | 15.7 (≈ 51.9 µM)
105 | O=C(NCCN1CCCCC1)Nc1ccc([N+](=O)[O-])cc1 | > 43.9
106 | O=C(CN1CCOCC1)Nc1cc(C(F)(F)F)ccc1Cl | 39.2 (≈ 121 µM)
107 | Cc1cccc(C)c1N1C(=O)CCC(C)(C)C1=O | > 36.8
108 | CC(=O)Nc1ccc(NC(=O)c2cccc(Oc3ccccc3)c2)cc1 | < 0.4
109 | CC(C)(C)C(=O)Nc1cc2c3c(c1)CCN3C(=O)CC2 | > 40.9
110 | COc1ccccc1NC(=O)C1CCCN(C(=O)NCc2ccccc2)C1 (centres undefined) | > 55.1
111 | Cn1c(=O)c2c(nc(NNC(=O)C(F)(F)F)n2C)n(C)c1=O | > 48
112 | Cc1nc([N+](=O)[O-])c(C(=O)OCc2ccccc2F)n1C | 41.8 (≈ 143 µM)
113 | COc1ccc(CCNC(=O)c2ccc(OC)c(OC)c2)cc1OC | 39.6 (≈ 115 µM)
114 | COC(=O)c1c(NC(=O)CCCC(=O)O)sc2c1CCCCC2 | > 50.9
115 | CCOC(=O)c1ccc(N2C(=O)C3CCCN3C2=S)cc1 (centres undefined) | 41 (≈ 135 µM)
116 | O=[N+]([O-])c1ccc(Oc2cccc3cccnc23)c(Cl)c1 | 14.1 (≈ 46.9 µM)
117 | Cc1nc([N+](=O)[O-])cn1CC(=O)Nc1ccc(F)c(Cl)c1 | 1.2 (≈ 3.84 µM)
118 | Cn1c(=O)n(C)c2cc(S(=O)(=O)Nc3ccc(F)cc3)ccc21 | 33.5 (≈ 99.9 µM)
119 | CS(=O)(=O)c1ccc(Cl)c(NC(=O)CN2CCN(C(=O)c3cccs3)CC2)c1 | > 66.3
